Assay results reported in US11865126B2, “Method for treating anxiety disorders, headache disorders, and eating disorders with psilocybin” (priority 2019, dated 2024).

Tested on: healthy subjects
Assay: Phase 1 healthy volunteer study, single oral dose: treatment-emergent adverse events
Assay type: in vivo, human
Description: A Phase 1 randomized, double-blind, placebo-controlled study to evaluate the effect of psilocybin on cognitive and emotional processing as compared to placebo in healthy volunteers was conducted. The study investigated the short-term (Day 7) and long-term (Day 28) effects of moderate (10 mg) and high doses (25 mg) of psilocybin on key domains of cognition, such as episodic memory, attention, working and spatial memory, social cognition and elements of executive function, including cognitive flexibility.
90 healthy subjects were studied. Approximately 50% of the subjects were psilocybin-naïve. For subjects with prior psilocybin experience, the last exposure was at least 1 year prior to the signing of the Informed Consent Form (ICF). Approximately 50% of the subjects were female. Subjects were stratified by sex and age (18-35 years old; >35 years old).
Each subject was assigned 1 treatment bottle containing 5 capsules packaged in a double-blind fashion, depending on the randomized treatment arm, the bottle contained one of the following: • a. Psilocybin 10 mg: 2×5-mg oral psilocybin capsules plus 3× placebo capsules • b. Psilocybin 25 mg: 5×5-mg oral psilocybin capsules • c. Placebo: 5× placebo capsules
Each 5-mg oral psilocybin capsule comprised 5 mg crystalline psilocybin in the form of Polymorph A, 12.5 mg of SMCC 50, 79.5 mg of SMCC 90, 1 mg sodium starch glycolate, 1 mg colloidal silicon dioxide, and 1 mg sodium stearyl fumarate
Adverse events: Throughout the course of the study, all AEs were monitored and recorded. Each AE was classified according to the following criteria: • i. […] Moderate: The AE produces some impairment of functioning, but is not hazardous to the subject's health. • iii. Severe: The AE produces significant impairment of functioning or incapacitation and is a definite hazard to the subject's health.
Selected Adverse Events of included: • (a) Euphoric mood • (b) Dissociative disorder • (c) Hallucination • (d) Psychotic disorder • (e) Cognitive disorder • (f) Disturbance in attention • (g) Altered mood • (h) Impairment of psychomotor skills • (i) Inappropriate affect • (j) Overdose • (k) Intentional product misuse • (l) Illusion
For example, drug-induced hepatitis that resolved without evidence of hepatic failure would not be considered life threatening even though drug-induced hepatitis can be fatal. • (c) Inpatient hospitalization or prolongation of existing hospitalization. • (d) Persistent or significant disability/incapacity. • (e) Congenital anomaly/birth defect in the offspring of a subject who received psilocybin. • (f) Other: Important medical events that may not result in death, be life-threatening, or require hospitalization, may be considered an SAE when, based upon appropriate medical judgment, they may jeopardize the subject and may require medical or surgical intervention to prevent one of the outcomes listed in this definition. […] Visits:
Visit 3 (V3): Drug Administration (Day 0): The subject was asked to eat a light breakfast at least two hours prior to coming to the clinic for study drug administration. On Day 0 (V3), the subject underwent the SSTS, had vital signs obtained, medications reviewed, AEs recorded and eligibility reviewed prior to being randomized to study drug. The study drug was administered to up to six subjects simultaneously in individual beds separated by a curtain. The subject was invited to put on eyeshades and headphones, lie down and listen to calming music for the rest of the session (six hours). The subject was supported 1:1 with a chaperone and supervised by the study psychiatrist and lead therapist.
Recording of adverse events and prior/concomitant medication was performed at each visit.
During administration of psilocybin, each subject received one on one support from a trained assisting therapist and each dosing session was supervised by a study psychiatrist and a lead therapist. […]

CN(C)CCc1c[nH]c2cccc(OP(=O)(O)O)c12 [psilocybin]
Infections and infestations, worst severity Severe: N (%) (10 mg): 0
Infections and infestations: Events (10 mg): 4
Investigations, worst severity Mild: Events (10 mg): 2
Investigations, worst severity Moderate: Events (10 mg): 0
Investigations, worst severity Moderate: N (%) (10 mg): 0
Investigations, worst severity Severe: Events (10 mg): 0
Investigations, worst severity Severe: N (%) (10 mg): 0
Investigations: Events (10 mg): 2
Mental fatigue: Events (10 mg): 0
Mental fatigue: N (%) (10 mg): 0
Mood altered, worst severity Mild: Events (10 mg): 2
Mood altered, worst severity Moderate: Events (10 mg): 8
Mood altered, worst severity Severe: Events (10 mg): 9
Mood altered, worst severity Severe: N (%) (10 mg): 6 (20.0)
Mood altered: Events (10 mg): 23
Musculoskeletal and connective tissue disorders, worst severity Mild: Events (10 mg): 0
Musculoskeletal and connective tissue disorders, worst severity Mild: N (%) (10 mg): 0
Musculoskeletal and connective tissue disorders, worst severity Moderate: Events (10 mg): 1
Musculoskeletal and connective tissue disorders, worst severity Severe: Events (10 mg): 0
Musculoskeletal and connective tissue disorders, worst severity Severe: N (%) (10 mg): 0
Musculoskeletal and connective tissue disorders: Events (10 mg): 1
Nausea: Events (10 mg): 1
Nervous system disorders, worst severity Mild: Events (10 mg): 23
Nervous system disorders, worst severity Moderate: Events (10 mg): 8
Nervous system disorders, worst severity Moderate: N (%) (10 mg): 6 (20.0)
Nervous system disorders, worst severity Severe: Events (10 mg): 0
Nervous system disorders, worst severity Severe: N (%) (10 mg): 0
Nervous system disorders: Events (10 mg): 35
Paraesthesia, worst severity Mild: Events (10 mg): 4
Paraesthesia, worst severity Moderate: Events (10 mg): 0
Paraesthesia, worst severity Moderate: N (%) (10 mg): 0
Paraesthesia, worst severity Severe: Events (10 mg): 0
Paraesthesia, worst severity Severe: N (%) (10 mg): 0
Paraesthesia: Events (10 mg): 4
Psychiatric disorders, worst severity Mild: Events (10 mg): 6
Psychiatric disorders, worst severity Moderate: Events (10 mg): 29
Psychiatric disorders, worst severity Severe: Events (10 mg): 21
Respiratory, thoracic and mediastinal disorders: Events (10 mg): 0
Respiratory, thoracic and mediastinal disorders: N (%) (10 mg): 0
Somatic hallucination, worst severity Mild: Events (10 mg): 1
Somatic hallucination, worst severity Moderate: Events (10 mg): 7
Somatic hallucination, worst severity Severe: Events (10 mg): 0
Somatic hallucination, worst severity Severe: N (%) (10 mg): 0
Somatic hallucination: Events (10 mg): 8
Tension headache, worst severity Mild: Events (10 mg): 1
Tension headache, worst severity Moderate: Events (10 mg): 2
Tension headache, worst severity Severe: Events (10 mg): 0
Tension headache, worst severity Severe: N (%) (10 mg): 0
Tension headache: Events (10 mg): 3
Tension headache: N (%) (10 mg): 3 (10.0)
Time perception altered, worst severity Mild: Events (10 mg): 1
Time perception altered, worst severity Moderate: Events (10 mg): 1
Time perception altered, worst severity Severe: Events (10 mg): 0
Time perception altered, worst severity Severe: N (%) (10 mg): 0
Time perception altered: Events (10 mg): 2
Incidence of Illusion, Hallucination (visual), Mood altered, Headache, Fatigue and Euphoric mood compared to placebo (10 mg and 25 mg): higher
Majority of the severe TEAEs (system organ class) (10 mg and 25 mg arms): psychiatric disorders
Serious adverse events or adverse events that led to withdrawal (10 mg and 25 mg, 12-week study): no serious adverse events or adverse events that led to withdrawal
Reported 'Mood altered' events: Being less judgmental (10 mg psilocybin (n = 30)): 1
Reported 'Mood altered' events: Calm (10 mg psilocybin (n = 30)): 0
Reported 'Mood altered' events: Clarity of thought (10 mg psilocybin (n = 30)): 0
Reported 'Mood altered' events: Contemplative state (10 mg psilocybin (n = 30)): 1
Reported 'Mood altered' events: Feeling more moody/sensitive (10 mg psilocybin (n = 30)): 1
Reported 'Mood altered' events: Feeling of adrenaline release (10 mg psilocybin (n = 30)): 0
Reported 'Mood altered' events: Feeling rested (10 mg psilocybin (n = 30)): 1
Reported 'Mood altered' events: Increased compassion (10 mg psilocybin (n = 30)): 0
Reported 'Mood altered' events: Increased creativity (10 mg psilocybin (n = 30)): 0
Reported 'Mood altered' events: Increased empathy (10 mg psilocybin (n = 30)): 2
Reported 'Mood altered' events: Increased sense of connectedness (10 mg psilocybin (n = 30)): 0
Reported 'Mood altered' events: Increased wit (10 mg psilocybin (n = 30)): 1
Reported 'Mood altered' events: Introspection (10 mg psilocybin (n = 30)): 5
Reported 'Mood altered' events: Laughter (10 mg psilocybin (n = 30)): 1
Reported 'Mood altered' events: More socially upbeat (10 mg psilocybin (n = 30)): 0
Reported 'Mood altered' events: Negative mood (10 mg psilocybin (n = 30)): 0
Reported 'Mood altered' events: Reflections (10 mg psilocybin (n = 30)): 3
Reported 'Mood altered' events: Saw themselves from a new perspective (10 mg psilocybin (n = 30)): 0
Reported 'Mood altered' events: Sense of oneness (10 mg psilocybin (n = 30)): 4
Reported 'Mood altered' events: Sense of openness (10 mg psilocybin (n = 30)): 1
Reported 'Mood altered' events: Unusual appreciation of music (10 mg psilocybin (n = 30)): 0
Any TEAE: % of subjects (10 mg, listed as Psilocybin): (96.7) %
AEs potentially related to study treatment, % of AEs in arm (25 mg): 95.9%
Affect lability, worst severity Mild: Events (25 mg): 2
Affect lability, worst severity Moderate: Events (25 mg): 1
Affect lability, worst severity Severe: Events (25 mg): 0
Affect lability, worst severity Severe: N (%) (25 mg): 0
Affect lability: Events (25 mg): 3
Affect lability: N (%) (25 mg): 3 (10.0)
Any Selected TEAE: % of subjects (25 mg): (90.0) %
Any Selected TEAE: N (%) (25 mg): 27
Any TEAE leading to death: Events (25 mg): 0
Any TEAE leading to death: N (%) (25 mg): 0
Any TEAE leading to study discontinuation: Events (25 mg): 0
Any TEAE leading to study discontinuation: N (%) (25 mg): 0
Any TEAE related to study treatment: % of subjects (25 mg): (96.7) %
Any TEAE related to study treatment: N (%) (25 mg): 29
Any TEAE, worst severity Mild: Events (25 mg): 14
Any TEAE, worst severity Mild: N (%) (25 mg): 3 (10.0)
Any TEAE, worst severity Moderate: Events (25 mg): 52
Any TEAE, worst severity Severe: Events (25 mg): 29
Any TEAE: % of subjects (25 mg): 96.7%
Any serious TEAE related to study treatment: Events (25 mg): 0
Any serious TEAE related to study treatment: N (%) (25 mg): 0
Any serious TEAE: Events (25 mg): 0
Any serious TEAE: N (%) (25 mg): 0
